Measurements as given in patent US20100150938A1, “METHODS AND COMPOSITIONS FOR REDUCING INFLAMMATION AND TREATING INFLAMMATORY DISORDERS” (UNIVERSITY OF MASSACHUSETTS, priority 2008, published 2010).
“Also recorded” adds a separate entry of the source. Non-standard residues stand in square brackets, D forms with d. Residues, ends and D or L forms follow the SMILES beside them. *: point of attachment. Sta = CC(C)C[C@H](N)[C@@H](O)CC(=O)O; Isovaleryl = CC(C)CC(=O)*; Cbz = O=C(OCc1ccccc1)*; CH2F = FC*

What was measured:
caspase-1 [1] = assay: Caspase-1 activation in microglia (FLICA, confocal microscopy, flow cytometry); type: cell-based, mouse
Experimental: For assessment of microglia-induced neurotoxicity, CAD mouse neuronal cells^47 were seeded on poly-L-lysine coated glass cover slips and grown in F12/DMEM supplemented with ciprofloxacin (Cellgro, Manassas, Va.) and 10% fetal calf serum (Hyclone, Logan, Utah) for 24 h. Differentiation was induced by withdrawal of serum for 48 h Immortalized microglia from wildtype or caspase-1^−/− mice were added in serum free medium to obtain mixed neuronal/microglial cultures and immediately stimulated. 72 h after stimulation with Aβ or media, cells were fixed, stained for the neuron-specific marker TuJ-1 and microglial marker CD11b, and imaged by confocal microscopy (Leica SP2 AOBS). Caspase-1 activity in microglial cells was assessed using the caspase-1 FLICA™ kit (Immunochemistry Technologies, Bloomington, Minn.) according to the manufacturer's instructions.
For evaluation of lysosomal damage, cells were incubated with LysoTracker green (1:2000) for 30 min and stimulated as described. Lysosomal damage was defined as loss of LysoTracker fluorescence as assessed by flow cytometry. All flow cytometry experiments were performed on an LSRII cytometer (BD Biosciences), data were acquired by DIVA software (BD Biosciences) and analyzed with FlowJo software (Tree Star Inc., Ashland, Oreg.).
IL-1β maturation is controlled by caspase-1 after assembly of the inflammasome, a multi protein complex that activates pro-caspase-1. In order to test whether Aβ activates caspase-1, we measured levels of activated caspase-1 using a fluorescent cell permeable probe (FAM-YVAD-Fmk), which covalently binds only to activated caspase-1 (Fluorescent labeled Inhibitors of Caspases, FLICA)^14. […] Similar results were obtained in primary microglial cultures (FIG. 15c).

caspase-1 [2] = assay: Caspase-1 cleavage/activation in mouse macrophages (Western blot p10); type: cell-based; conditions: for caspase-1 cleavage induced by the stimulus: LPS-primed bone marrow-derived macrophages, wild-type; for caspase-1 cleavage (p10) induced by the stimulus: LPS-primed wild type bone marrow-derived macrophages, Aβ and reverse Aβ 10 μM
Experimental: (§1) Bone marrow derived macrophages were generated as described (Severa, M et al. Journal of Biological Chemistry 281:26188-26195 (2006)). Human PBMCs were isolated by from whole blood of healthy volunteers by density gradient centrifugation. Lysis of red blood cells was performed using red blood cell lysis buffer (Sigma). Experiments in PBMCs and macrophages were carried out at a cell density of 2×10^6 cells/ml. All primary cells and cell lines except THP-1 cells were cultured in DMEM supplemented with L-glutamine, ciprofloxacin (Cellgro, Manassas, Va.) and 10% fetal calf serum (Hyclone, Logan, Utah). THP-1 cells were cultured in RPMI supplemented with 10% fetal calf serum (Hyclone), L-glutamine, sodium pyruvate (Cellgro), and ciprofloxacin. One day prior to stimulation, THP-1 cells were differentiated using 0.5 μM PMA for three hours, washed three times and plated for stimulation. All experiments that were performed for Western blot analysis were carried out in serum free DMEM medium. ATP stimulations were carried out at 5 mM one hour prior to harvesting supernatants.
Cell culture supernatants were precipitated by adding an equal volume of methanol and 0.25 volumes of chloroform, vortexed and centrifuged at 20.000×g for 10 min. The upper phase was discarded and 500 μl of methanol was added to the interphase. This mixture was centrifuged at 20.000×g for 10 min and the protein pellet dried at 55° C., resuspended in Laemmli buffer and boiled at 99° C. for 5 min. Samples were separated by SDS-PAGE (15%) and transferred onto nitrocellulose membranes. As indicated, blots were incubated with rabbit polyclonal antibody to anti murine caspase-1 p10 (sc-514, Santa Cruz Biotechnology, Santa Cruz, Calif.), rabbit polyclonal anti human caspase-1 p10 (sc-515, Santa Cruz Biotechnology), rabbit polyclonal anti human cleaved IL-1β (Asp116) (Cell Signaling, Boston, Mass.) or rabbit polyclonal anti murine cathepsin B (R&D Systems, Minneapolis, Minn.).
Cell culture supernatants were precipitated by adding an equal volume of methanol and 0.25 volumes of chloroform, vortexed and centrifuged at 20,000×g for 10 min. The upper phase was discarded and 500 μl of methanol was added to the interphase. This mixture was centrifuged at 20,000×g for 10 min and the protein pellet dried at 55° C., resuspended in Laemmli buffer and boiled at 99° C. for 5 min Samples were separated by SDS-PAGE (15%) and transferred onto nitrocellulose membranes. Blots were incubated with rabbit polyclonal antibody to anti murine caspase-1 p10 (sc-514, Santa Cruz Biotechnology, Santa Cruz, Calif.).

THP-1 cells = assay: Lysosomal rupturing in THP-1 cells, IL-1β release; type: cell-based, human; conditions: PMA-differentiated THP-1 cells
Experimental: Cell culture supernatants were assayed for IL-1β using ELISA kits from BD Biosciences (Franklin Lakes, NJ) according to the manufacturer's instructions. To measure intracellular IL-1β, cells were washed and subjected to three freeze thaw cycles in assay diluent. PMA-differentiated THP-1 cells were incubated with hypertonic DMEM medium containing 10% polyethylene glycol (PEG) 1000, 1.4 M sucrose, 20 mM Hepes (pH 7.2) and 5% FCS for […] at 37° C. Cells were subsequently washed and incubated in hypotonic DMEM medium [DMEM: H2O (3:2)] for 2 min to induce lysosomal rupturing. Cells were then incubated in serum free DMEM for additional 4 hours.

ASC = assay: ASC-CFP microglia cell line, ASC clustering; type: cell-based, mouse; conditions: LPS-primed ASC-CFP microglia, 3 h after stimulation
Source text: Human ASC was fused to CFP using BgIII/BamHI in pEF-BOS-CFP. Subsequently, ASC-CFP was cloned using XhoI and NotI into a modified form of FUGW (FUGW-XN). FUGW-XN was modified by replacing GFP with a novel cut site that created XhoI and NotI compatible ends upon Esp3I digestion.
Lentivirus was produced in 293T cells transfected with the FUGW based expression vector coding for ASC-CFP, lentiviral packaging plasmid containing gag, pol and rev genes (pCMV-dR8.91) and envelope plasmid (VSV-G) using TransIT-LT1 transfection reagent (Minis Bio, MIR 2300/5/6) as previously described^46. One day after transfection, medium was replaced and after one additional day of culture supernatants containing the lentivirus was removed, filtered and used to infect immortalized microglia cells.
For experiments, ASC-CFP microglial cells were seeded in duplicate into confocal dishes, stimulated as indicated. A647-labeled cholera toxin subunit B (1:1000) was added to stain cellular membranes. Cells were subsequently imaged using confocal microscopy (Leica SP2 AOBS). Cells were fixed and 5 random fields were imaged in duplicate for quantification.
First, we stably transduced microglial cell cultures with a fusion protein of ASC and cyan fluorescent protein (CFP). ASC forms large oligomers upon its activation, leading to visible changes in the cytoplasmic fluorescence pattern of ASC-CFP. […]

mouse microglia = assay: IL-1β release from LPS-primed mouse microglia (ELISA); type: cell-based; conditions: LPS-primed immortalized microglia
Experimental: For primary cultures, bone marrow-derived macrophages and microglia were isolated as described^42,43 and cultured in DMEM supplemented with L-glutamine, ciprofloxacin (Cellgro, Manassas, Va.) and 10% fetal calf serum (Hyclone, Logan, Utah) Immortalized macrophage and microglial cell lines were generated using J2 recombinant retrovirus (carrying v-myc and v-raf oncogenes)^44,45. Briefly, primary bone marrow cells were incubated in L929 conditioned medium for 3-4 days to induce macrophage differentiation. Cells were then infected with J2 recombinant retrovirus and maintained in culture until cells were growing in the absence of conditioned medium. Similarly, primary mixed glial cultures were cultured until fully confluent. After two consecutive infections with J2 retrovirus, cells were maintained in normal medium until growth of microglial cells in colonies was observed. The semi-adherent colonies of microglial cells were washed off and cultured in new flasks. […] Microglial cell lines form wild type (C57/BL6), Caspase-1^−/− and IL-IR^−/− mice as well as macrophage cell lines from wild type (C57BL6), NALP3 -, IPAF- and ASC-deficient mice were generated and used for experiments as indicated.
(§2) Stimulations were carried out in serum free DMEM medium. Microglial cells and macrophages were primed with 100 U/ml IFNγ (Griess assay, TNF ELISA, real-time quantitative PCR) or 100 ng/ml ultrapure LPS (IL-1β ELISA, FLICA, ASC-CFP microglia cell line assay, Western blot) 1-3 h prior to stimulation with Aβ, revAβ, zymosan, ATP or transfection with dAdT.
Cell culture supernatants were assayed for IL-1β and TNFα using ELISA kits from R&D Systems (Minneapolis, Minn.) according to the manufacturer's instructions. Nitric oxide was measured by Griess reaction of nitrites accumulated in the supernatants using chemicals from Sigma.

mouse macrophages = assay: IL-1β release from LPS-primed mouse macrophages (bone marrow-derived, B6-MCLs), ELISA; type: cell-based
Experimental: as §1
Immortalized macrophage cell lines were generated using the previously described J2 recombinant retrovirus (carrying v-myc and v-raf/mil oncogenes) (Roberson, S. M. & Walker, W. S. Cellular immunology 116:341-351 (1988)). Briefly, primary bone marrow cells were incubated in L929 conditioned medium for 3-4 days to induce macrophage differentiation. Subsequently, cells were infected with J2 recombinant retrovirus. Cells were maintained in culture for 3-6 months slowly weaning off the percentage of L929 supernatant until cells were growing in the absence of conditioned medium.
Macrophage phenotype was verified by surface marker expression for CD11b and F480 as well as a range of functional parameters, including responsiveness to TLR ligands and bacterial uptake. Macrophage cell lines from wild-type (C57BL6), NALP3- and ASC-deficient mice were generated and are referred to as B6-MCLs, NALP3 -MCLs and ASC-MCLs.
Cell culture supernatants were assayed for IL-1β using ELISA kits from BD Biosciences (Franklin Lakes, NJ) according to the manufacturer's instructions. To measure intracellular IL-1β, cells were washed and subjected to three freeze thaw cycles in assay diluent.
as §2

[3] = test system: lysosomes of mouse macrophages; assay: Lysosomal acidification, proteolysis and rupture in mouse macrophages (LysoSensor Green, DQ ovalbumin, acridine orange, dextran); type: cell-based
Experimental: For evaluation of lysosomal rupture, cells were incubated with 1 μg/m1 acridine orange for 15 min, washed three times and subsequently stimulated as indicated. Lysosomal rupture can be assessed by loss of emission at 600-650 nm using flow cytometry. All flow cytometry experiments were performed on an LSRII cytometer (BD Biosciences). Data were acquired by DIVA (BD Biosciences) and analyzed by FlowJo software (Tree Star Inc., Ashland, Oreg.).
Confocal reflection microscopy was combined with fluorescence microscopy on a Leica SP2 AOBS confocal laser scanning microscope. Reflection was captured by placing the detector channel directly over the wavelength of the selected laser channel for reflection light capture and the AOBS was set to allow 5-15% of laser light into the collection channel. Fluorescence was simultaneously captured by standard confocal imaging techniques.

With `Nc1ncnc2c1ncn2[C@@H]1O[C@H](COP(=O)(O)OP(=O)(O)OP(=O)(O)O)[C@@H](O)[C@H]1O` [ATP] the “caspase-1 positive microglial cells after stimulation” value (caspase-1 [1]; immortalized microglia, Aβ 10 μM, revAβ 10 μM, ATP 1 mM, 4 h) was “robust increase”, the “caspase-1 cleavage induced by the stimulus” value (caspase-1 [2]) was “induced in a dose dependent way” and the “caspase-1 cleavage (p10) induced by the stimulus” value (caspase-1 [2]) was “induced caspase-1 cleavage (p10)”. For the same molecule, the “IL-1β release induced by the stimulus” value (THP-1 cells; 4 h) was “increased IL-1β release” and the “formation of fluorescent ASC-CFP clusters” value (ASC) was “also observed”.

With `CCCNC(=O)[C@H]1O[C@@H]1C(=O)N[C@H](C(=O)N1CCC[C@H]1C(=O)OC)[C@@H](C)CC` [CA-074-Me] the “Aβ-induced IL-1β release in presence of cathepsin inhibitor” value (mouse microglia) was “dose-dependently inhibited”, the “caspase-1 activation after Aβ stimulation, inhibitor present” value (caspase-1 [1]; microglia, FLICA, flow cytometry) was “strongly and dose-dependently inhibited; also recorded: dose-dependently reduced” and the “caspase-1 activation induced by ATP, inhibitor present” value (caspase-1 [1]; microglia, FLICA, inhibitor 20 μM) was “not affected; also recorded: no effect”. The “caspase-1 activation after silica crystal treatment, inhibitor present” value (caspase-1 [2]; LPS-primed B6-MCLs, CA-074-Me 10 μM (FIG. 5a)) was “much less caspase-1 activation”, the “caspase-1 cleavage after crystal-independent disruption of lysosomes, inhibitor present” value (caspase-1 [2]; mouse macrophages, hypertonic then hypotonic media, CA-074-Me 10 or 2 μM) was “partially inhibited” and the “IL-1β release after lysosomal rupture, inhibitor present” value (THP-1 cells) was “clearly reduced”.

`COC(=O)[C@H](CC(C)C)NC(=O)[C@@H](N)CC(C)C` [Leu-Leu-OMe, L-leucyl-L-leucine methyl ester] was tested, and the “IL-1β produced in response to the stimulus” value (mouse macrophages; LPS-primed macrophages from wild-type mice) was “large quantities of IL-1β” and the “lysosomal rupture / loss of lysosomes caused by the stimulus” value ([3]; mouse macrophages, acridine orange, DQ ovalbumin, dextran) was “considerable swelling and rupture of lysosomes”.

With `O=C(NC(Cc1ccccc1)C(=O)NC(Cc1ccccc1)C(=O)CF)OCc1ccccc1` (stereo not drawn) [Z-FF-FMK] (Cbz-Phe-Phe-CH2F; configuration not given here) the “Aβ-induced IL-1β release in presence of cathepsin inhibitor” value (mouse microglia) was “no effect; also recorded: no attenuation”.

For `CO/C1=C\C(C)=C\[C@@H](C)[C@@H](O)[C@@H](C)C/C(C)=C/C=C/[C@H](OC)[C@@H]([C@@H](C)[C@@H](O)[C@H](C)[C@@]2(O)C[C@@H](O)[C@H](C)[C@@H](C(C)C)O2)OC1=O` [bafilomycin A], the “ATP-induced IL-1β release, inhibitor present” value (mouse macrophages; LPS-primed B6-MCLs, 6 h) was “no effect”, the “silica-mediated IL-1β release, inhibitor present” value (mouse macrophages; LPS-primed B6-MCLs, 6 h) was “completely blocked” and the “release of IL-1b in response to Leu-Leu-OMe, inhibitor present” value (mouse macrophages; LPS-primed bone marrow-derived macrophages, bafilomycin 250 nM) was “also inhibited”. For the same molecule, the “formation of acidic lysosomes (LysoSensor Green)” value ([3]; mouse macrophages) was “blocked”, the “Leu-Leu-OMe-induced lysosomal morphology change and rupture, inhibitor present” value ([3]; mouse macrophages (data not shown)) was “much less altered lysosomal morphology and rupture” and the “appearance of fluorescent DQ ovalbumin (lysosomal proteolytic function)” value ([3]; mouse macrophages, bafilomycin 250 nM) was “suppressed”.

For `CC(C)CC(=O)N[C@H](C(=O)N[C@H](C(=O)N[C@@H](CC(C)C)[C@@H](O)CC(=O)N[C@@H](C)C(=O)N[C@@H](CC(C)C)[C@@H](O)CC(=O)O)C(C)C)C(C)C` [pepstatin A] (Isovaleryl-VV[Sta]A[Sta]-OH), the “Aβ-induced IL-1β release in presence of cathepsin inhibitor” value (mouse microglia) was “no effect; also recorded: no attenuation”.

“poly(deoxyadenylic-thymidylic) acid sodium salt [poly(dA:dT)]” was tested, and the “caspase-1 cleavage induced by the stimulus” value (caspase-1 [2]) was “induced in a dose dependent way” and the “caspase-1 cleavage (p10) induced by the stimulus” value (caspase-1 [2]) was “induced caspase-1 cleavage (p10)”.
